Measured values: PMC11706420, “Establishing a physiologically based pharmacokinetic framework for aldehyde oxidase and dual aldehyde oxidase‐CYP substrates” (CPT: Pharmacometrics & Systems Pharmacology, 2024)
Like-named read-outs stand apart in the source and are kept apart here.

Legend:
[1] = Cytosolic binding (fucyt), human liver cytosol with AO inhibitor; settings: 1 mg/mL; n=3, mean (CV%)
[2] = Microsomal binding (fumic); settings: for Predicted fumic for 1 mg/mL: corrected with Hallifax&Houston algorithm
Protocol: Microsomal binding (fumic):
(§1) The fraction unbound in human liver microsomes (fumic) of compounds was determined by equilibrium
(§2) dialysis using the high-throughput dialysis method 2 using membranes from HTDialysis, LLC (Gales
(§3) Ferry, CT) having 12 to 14 kDa molecular mass cutoff. Deactivated HLM (by leaving the HLM
(§4) incubation media on the bench overnight at ambient temperature) at 0.25 mg/mL with 2 µM of
(§5) compounds (a final concentration of DMSO as 1%) was added to the donor compartment in 50 mM
(§6) phosphate buffer containing 1 M MgCl2. (150 µL, n=4 per compound). 150 µL of Dulbecco’s PBS
(§7) buffer (pH 7.4) was added to the receiver chamber for each replicate. After reaching equilibrium for 6
(§8) h on a plate shaker (200 rpm) at 37°C in a humidified CO2 incubator (5% CO2), aliquots from both the
(§9) receiver (45 µL) and donor (15 µL) sides of the membrane were matrix matched and analyzed by LC-
(§10) MS/MS. Matrix stability (n=3) and % of recovery (n=4) were assessed.
(§11) Data analysis for binding in microsomal and cytosolic incubations:
(§12) Fraction unbound in microsomal (fumic) and cytosolic (fucyt) incubations were calculated via Eq. S10-11
(§13) based on the ratio of the peak areas of analyte and internal standard.
(§14) 𝑃𝑒𝑎𝑘 𝐴𝑟𝑒𝑎 𝑅𝑎𝑡𝑖𝑜 = (𝑃𝑒𝑎𝑘 𝐴𝑟𝑒𝑎 𝑜𝑓 𝐴𝑛𝑎𝑙𝑦𝑡𝑒)/(𝑃𝑒𝑎𝑘 𝐴𝑟𝑒𝑎 𝑜𝑓 𝐼𝑛𝑡𝑒𝑟𝑛𝑎𝑙 𝑆 tan 𝑑 𝑎𝑟𝑑) (Eq. S10)
(§15) 𝑓𝑢𝑚𝑖𝑐 𝑜𝑟 𝑓𝑢𝑐𝑦𝑡 = (𝑃𝑒𝑎𝑘 𝐴𝑟𝑒𝑎 𝑅𝑎𝑡𝑖𝑜 𝑖𝑛 𝑟𝑒𝑐𝑒𝑖𝑣𝑒𝑟 𝑐𝑜𝑚𝑝𝑎𝑟𝑡𝑚𝑒𝑛𝑡)/
(§16) concentration (0.5 mg/mL) using Hallifax and Houston algorithm (Hallifax and Houston, 2006). Matrix
(§17) stability and recovery were assessed using Eq. S12 and Eq. S13.
(§18) %𝑠𝑡𝑎𝑏𝑖𝑙𝑖𝑡𝑦 = (𝐴𝑣𝑒𝑟𝑎𝑔𝑒 𝑝𝑒𝑎𝑘 𝑎𝑟𝑒𝑎 𝑖𝑛 𝑚𝑎𝑡𝑟𝑖𝑥 𝑎𝑡 𝑡ℎ𝑒 𝑒𝑛𝑑 𝑜𝑓 𝑖𝑛𝑐𝑢𝑏𝑎𝑡𝑖𝑜𝑛)/
(§19) (𝐴𝑣𝑒𝑟𝑎𝑔𝑒 𝑝𝑒𝑎𝑘 𝑎𝑟𝑒𝑎 𝑎𝑡 𝑇 = 0) × 100 (Eq. S12)
%𝑟𝑒𝑐𝑜𝑣𝑒𝑟𝑦 = (𝐴 + 𝐵)/𝐶 × 100 (Eq. S13)
(§20) where A is the average peak area ratio of all matrix samples, B is the average peak area ratio
(§21) of all buffer samples multiplied with the buffer dilution factor and C is the average peak area ratio of

[3] = cited from earlier work; for fmAO: ref suppl. 8-13
[4] = observed, cited from earlier work; for CLRenal: ref Table S2/S3 studies
[5] = In vitro permeability (Papp), transwell transport; settings: dog, MDCK
[6] = in vitro; settings: both, human, microsomes
Protocol: (§22) Subcellular fractions of human and dog liver were sourced from XenoTech (Kansas City, KS, USA). In vitro CLint,u was measured with substrate depletion and binding assays for all compounds (1 μM) in human liver microsomes (HLM; 0.25–0.5 mg/mL) and HLC (1 mg/mL).
(§23) Microsomal clearance incubations (CLint):
(§24) Human liver microsomes were stored at −80°C and rapidly thawed just before use at 37°C.
(§25) All compounds were mixed with HLM and 50 mM
(§26) phosphate buffer. 450 µL of the mixture was added to 1.2mL cluster tubes in a 96-well block in
(§27) duplicate and warmed in a water bath (Thermo Scientific Precision™,Waltham MA, USA ) at 37°C for
(§28) 5 min. Reactions were initiated by the addition of 50 µL from 10 mM of NADPH stock in 50 mM
(§29) phosphate buffer (final NADPH concentration, 1 mM). The final incubation contained 1 µM test
(§30) compound in 500 µL total volume with 0.02% DMSO. At each time point (5, 10, 20, 30, and 60 min),
(§31) 60 µL of incubation mixture was added to 120 uL of quench solutions (MeOH:ACN, 1:1, v:v)
(§32) containing internal standard (0.5 µM carbutamide). The mixture was centrifuged at 3000 rpm for 20
(§33) min (Eppendorf 5810R, Hamburg, Germany). Supernatant was injected to HPLC-MS/MS with for data
(§34) Data analysis for substrate depletion assays:
(§35) Data from the microsomal and cytosolic incubations were analyzed using GraFit 7 (Erithacus Software,
(§36) Horley, UK) to determine the elimination rate constant (k), which was used in CLint calculation (Eq.
(§37) S9). A nonlinear single exponential fit was used for all compounds.
𝐶𝐿 = 𝑘 × 𝑣𝑜𝑙𝑢𝑚𝑒 𝑜𝑓 𝑖𝑛𝑐𝑢𝑏𝑎𝑡𝑖𝑜𝑛 (Eq S9)

[7] = both, human, 6 h, 2 µM, pH 7.4
Protocol: Microsomal binding (fumic):
as §1, §2, §3, §4, §5, §6, §7, §8, §9, §10, §11, §12, §13, §14, §15, §16, §17, §18, §19
%𝑟𝑒𝑐𝑜𝑣𝑒𝑟𝑦 = (𝐴 + 𝐵)/𝐶 × 100 (Eq. S13)
as §20, §21

[8] = Plasma protein binding (fup), rapid equilibrium dialysis; type: in vitro ADME, human; settings: male, human, plasma, 20 h, 1 µM
[9] = Cytosolic clearance incubations (substrate depletion); settings: both, human, liver cytosol
Protocol: In vitro CLint,u was measured with substrate depletion and binding assays for all compounds (1 μM) in human liver microsomes (HLM; 0.25–0.5 mg/mL) and HLC (1 mg/mL). HLC pool was prepared from livers perfused with Custodiol HTK (histidine tryptophan ketoglutarate) solution, marketed as having preserved “high AO/XO activity.”[15]
Cytosolic clearance incubations (CLint):
Cytosolic incubations were conducted in triplicate, with an additional assay with one replicate for each
Human liver cytosols (HLC) were stored at −80°C and
rapidly thawed just before use at 37°C. HLC (final concentration, 1 mg/mL) was added to Eppendorf
tubes in 96-well plate format and prewarmed at 37°C for 5 min. 45 µL of 50 mM potassium phosphate
concentration of organic solvent in the incubation media was ≤0.1%. Reactions were initiated by the
addition of compound stock solutions (final concentration, 1 µM in 500 µL). At each time point (0, 5,
15, 30, 60 and 120 min), samples from the incubation mixture were added to quench solutions (ACN
or ACN:MeOH containing pruvanserin or midazolam as internal standard, 80:20, v:v). The mixture was
centrifuged at 3500-4000 rpm for 10-30 min (Beckman Coulter Allegra 25R Centrifuge; Brea, CA,
USA). Each well was assayed for parent compound and internal standard, using a suitable LC/MS/MS
method. Positive control carbazeran (1 µM) was run at the same time to ensure system integrity (data

[10] = system: CYP3A4; settings: cited from earlier work
[11] = with 25 μM hydralazine; cited from earlier work
[12] = cited from earlier work
[13] = Cytosolic binding (fucyt), dog liver cytosol; settings: 1 mg/mL; n=3, mean (CV%)
Protocol: In vitro data were generated to inform the PBPK models of the selected drugs (Supplement 1 in Appendix S1; Table S1). Subcellular fractions of human and dog liver were sourced from XenoTech (Kansas City, KS, USA). In vitro CLint,u was measured with substrate depletion and binding assays for all compounds (1 μM) in human liver microsomes (HLM; 0.25–0.5 mg/mL) and HLC (1 mg/mL). HLC pool was prepared from livers perfused with Custodiol HTK (histidine tryptophan ketoglutarate) solution, marketed as having preserved “high AO/XO activity.”[15] Dog liver cytosols (DLC; 1 mg/mL) were used to investigate cytosolic binding in the absence of AO. Routine in vitro assays were used to quantify unbound fraction in plasma (fup), blood‐to‐plasma ratio (B/P), and apparent permeability (Papp) through transwell transport assays utilizing canine Mdr1 knockout and empty vector‐transfected MDCKI cells.
𝐶𝐿 = 𝑘 × 𝑣𝑜𝑙𝑢𝑚𝑒 𝑜𝑓 𝑖𝑛𝑐𝑢𝑏𝑎𝑡𝑖𝑜𝑛 (Eq S9)
Cytosolic binding (fucyt):
The fraction unbound in human liver cytosols (fucyt) of compounds was determined by equilibrium
dialysis using the RED device (Thermo Fisher, Waltham MA, USA) with a molecular weight cut-off of
8 kDa. Dog or human liver cytosols at 1 mg/mL with 1 µM of compounds (300 µL, n=3 per compound)
were added to the donor compartment in 100 mM potassium phosphate buffer with final DMSO
liver cytosols to inactivate AO, whereas dog was used as a natural AO knock-out model. 500 µL of 100
mM potassium phosphate buffer (pH 7.35) was added to the receiver chamber for each replicate.
RED device was then sealed with an adhesive foil and incubated on an orbital shaker at 450 rpm (VWR
Symphony) at 37°C with 5 % CO2. After reaching equilibrium for 4 hours, aliquots from both the
receiver (30µL) and donor (30µL) sides of the membrane were matrix matched, and then quenched with
180 µL of cold ACN with 100 nM propranolol (internal standard). The samples were placed in a
Beckman Coulter Allegra x 12R Centrifuge (Brea, CA) for 15 minutes at 3700 rpm. After centrifugation,
the supernatant of each sample was diluted 1:2 and analyzed by LC -MS/ MS. Matrix stability and
recovery were assessed in triplicates and followed identical sample preparation.
Microsomal binding (fumic):
as §1, §2, §3, §4, §5, §6, §7, §8, §9, §10, §11, §12, §13, §14, §15, §16, §17, §18, §19
%𝑟𝑒𝑐𝑜𝑣𝑒𝑟𝑦 = (𝐴 + 𝐵)/𝐶 × 100 (Eq. S13)
as §20

[14] = system: aldehyde oxidase (AO); experiment: Observed clinical pharmacokinetics; settings: male, human, plasma, intravenous, 80 mg
Protocol: Human mass balance and clinical pharmacokinetics data after i.v./oral administration (Supplement 3 in Appendix S1; Tables S2 and S3) were utilized to obtain observed fmi and CLint,u, respectively.[23], [24] When observed fmi contained uncertainty (Table S2), minimum and maximum fmi were tested. Virtual subjects (n = 1000) were generated using Simcyp, reflecting the subjects in respective clinical study (Table S3). The mean of the simulated physiological scalars, hepatic blood flow, and predicted/optimized fraction absorbed (fa) and fraction escaping gut metabolism (Fg) were then used in the back‐calculation of in vivo total CLint,u. The well‐stirred liver model was utilized if intravenous (i.v.) data were available or calculated from oral CL, as described previously.[5] CLint,u was then scaled back to cytosolic or microsomal CLint,u using physiological scalars and fmi. Middle‐out models were developed using either observed fmi or CLint,u to refine ESF‐supported bottom‐up models. In the top‐down model, both parameters were fixed to observed values (Figure 1).

[15] = Microsomal clearance incubations (substrate depletion); settings: both, human, liver microsomes
Protocol: as §22, §23, §24, §25, §26, §27, §28, §29, §30, §31, §32, §33, §34, §35, §36, §37
𝐶𝐿 = 𝑘 × 𝑣𝑜𝑙𝑢𝑚𝑒 𝑜𝑓 𝑖𝑛𝑐𝑢𝑏𝑎𝑡𝑖𝑜𝑛 (Eq S9)

[16] = DDI study with rifampicin (capmatinib 400, idelalisib 150, lenvatinib 24 mg) or carbamazepine (ziprasidone 20 mg), observed, ref suppl. 15,18,21,25
[17] = with itraconazole (capmatinib 200 mg) or ketoconazole (idelalisib 400, lenvatinib 5, ziprasidone 40 mg), observed, ref suppl. 15,10,17,20,24
[18] = with rifampicin (capmatinib 400, idelalisib 150, lenvatinib 24 mg) or carbamazepine (ziprasidone 20 mg), observed, ref suppl. 15,18,21,25
[19] = iv: zaleplon 5 (F), ziprasidone 5, zoniporide 80 mg, ref suppl. 22,23,13

Question: Which “fucyt, Human Liver Cytosol with 5 uM Raloxifene” value [1] does the source give for `COc1cc2nccc(Oc3ccc(NC(=O)NC4CC4)c(Cl)c3)c2cc1C(N)=O` [Lenvatinib] here?
Answer: 0.678 (3.49)

Question: And the “fucyt, Human Liver Cytosol with 50 uM Hydralazine” value [1]?
Answer: 0.718 (1.95)

Question: What about the “Predicted fumic for 1 mg/mL” value [2] of the same molecule?
Answer: 0.463

Question: And the fmCYP3A4 ([3]; observed (mass balance), min-max where uncertain, ref suppl. 8-12)?
Answer: 28-41

Question: And the “fmCYP3A4 (maximum)” value ([3]; ref suppl. 9-11)?
Answer: 0.41

Question: And the “fmCYP3A4 (minimum)” value ([3]; ref suppl. 9-11)?
Answer: 0.28

Question: And the CLRenal [4]?
Answer: 0.040 L/h

Question: And the Papp A→B at 120 min, 5 µM [5]?
Answer: 29.8 ×10⁻⁶ cm/s

Question: What about the Papp B→A at 120 min, 5 µM [5] of the same molecule?
Answer: 21.3 ×10⁻⁶ cm/s

Question: What about the microsomal CLint at 1 µM [6] of the same molecule?
Answer: 7.43 µL/min/mg

Question: And the “fumic (PBPK input)” value [7]?
Answer: 0.627

Question: What about the “% Stability in plasma” value [8] of the same molecule?
Answer: 108%

Question: What about the microsomal CLint at 1 µM [9] of the same molecule?
Answer: 1 µL/min/mg

Question: What about the “Cmax, control” value ([10]; DDI study with itraconazole (capmatinib 200 mg) or ketoconazole (idelalisib 400, lenvatinib 5, ziprasidone 40 mg), observed geomean (CV%), ref suppl. 15,10,17,20,24) of the same molecule?
Answer: 43.7 (26) ng/mL

Question: What about the “AUCinf, control” value ([10]; DDI study with itraconazole (capmatinib 200 mg) or ketoconazole (idelalisib 400, lenvatinib 5, ziprasidone 40 mg), observed, ref suppl. 15,10,17,20,24) of the same molecule?
Answer: 577 (17) ng.h/mL

Question: And the “AUCinf, control (AUC0-12 for ziprasidone)” value [10, 16]?
Answer: 2370 (24.2) ng.h/mL

Question: And the “Cmax, control” value [10, 16]?
Answer: 274 (36.2) ng/mL

Question: And the “AUCinf, interaction” value [10, 17]?
Answer: 662 (21) ng.h/mL

Question: And the “Cmax, interaction” value [10, 17]?
Answer: 51.2 (38) ng/mL

Question: What about the “AUCinf, interaction (AUC0-12 for ziprasidone)” value [10, 18] of the same molecule?
Answer: 1950 (27.1) ng.h/mL

Question: What about the “Cmax, interaction” value [10, 18] of the same molecule?
Answer: 275 (28.6) ng/mL

Question: What about the “HH CLint, non-AO” value [11] of the same molecule?
Answer: 0.5[21] μL/min/10^6 hepatocytes

Question: What about the pKa1 ([12]; 47 (per cell)) of the same molecule?
Answer: 12.37[44]

Question: And the “fucyt, Dog Liver Cytosol with 50 uM Hydralazine” value [13]?
Answer: 0.721 (7.47)

Question: With `N=C(N)NC(=O)c1cnn(-c2cccc3ncccc23)c1C1CC1` [Zoniporide] as the molecule, how does the “fucyt, Human Liver Cytosol with 5 uM Raloxifene” value [1] read?
Answer: 0.954 (5.40)

Question: What about the “fucyt, Human Liver Cytosol with 50 uM Hydralazine” value [1] of the same molecule?
Answer: 1 (0.40)

Question: What about the “fumic (PBPK input)” value ([2]; at incubation protein concentration (0.25 or 0.5 mg/mL)) of the same molecule?
Answer: 0.642

Question: What about the “Predicted fumic for 1 mg/mL” value [2] of the same molecule?
Answer: 0.476

Question: What about the fmAO ([3]; measured in excreta) of the same molecule?
Answer: 0.52-0.69

Question: What about the fmAO ([3]; observed (mass balance), min-max where uncertain, Table S10) of the same molecule?
Answer: 52-69

Question: And the fmother ([3]; observed (mass balance), min-max, ref suppl. 13)?
Answer: 13-30

Question: What about the ferenal ([3]; ref suppl. 9-11, 13) of the same molecule?
Answer: 0.17

Question: What about the “fmother (maximum)” value ([3]; ref suppl. 9-11, 13) of the same molecule?
Answer: 0.30

Question: And the “fmother (minimum)” value ([3]; ref suppl. 9-11, 13)?
Answer: 0.13

Question: And the “fmAO (maximum)” value ([3]; ref suppl. 11, 13)?
Answer: 0.69

Question: What about the “fmAO (minimum)” value ([3]; ref suppl. 11, 13) of the same molecule?
Answer: 0.52

Question: And the “fe (biliary)” value ([3]; ref suppl. 13)?
Answer: 0.01

Question: What about the AUCinf [4, 19] of the same molecule?
Answer: 839 (4.08) ng.h/mL

Question: What about the CLiv [4, 19] of the same molecule?
Answer: 95.4 (5.71) L/h

Question: And the Cmax [4, 19]?
Answer: 590 (7.49) ng/mL

Question: What about the CLRenal [4] of the same molecule?
Answer: 16.2 L/h

Question: What about the Papp A→B at 120 min, 5 µM [5] of the same molecule?
Answer: 1.72 ×10⁻⁶ cm/s

Question: What about the Papp B→A at 120 min, 5 µM [5] of the same molecule?
Answer: 1.22 ×10⁻⁶ cm/s

Question: And the “% Stability in plasma” value [8]?
Answer: 105%

Question: What about the CLint scaled [14] of the same molecule?
Answer: > 1000 mL/min/kg

Question: What about the microsomal CLint at 1 µM [15] of the same molecule?
Answer: 5.19 µL/min/mg

Question: What about the “HH CLint, non-AO” value [11] of the same molecule?
Answer: 1.6[21] μL/min/10^6 hepatocytes

Question: What about the pKa1 ([12]; 47 (per cell)) of the same molecule?
Answer: 3.4[47]

Question: What about the pKa2 ([12]; 47 (per cell)) of the same molecule?
Answer: 7.2[47]

Question: And the logP ([12]; octanol-water, 12 (per cell))?
Answer: 1.15[12]

Question: What about the “fucyt, Dog Liver Cytosol with 50 uM Hydralazine” value [13] of the same molecule?
Answer: 0.847 (1.57)
